molecular target: T1, FAS (Homo sapiens (Human), UniProt P49327); assay: biochemical; conditions: not given
T1 sequence (P49327 whole entry): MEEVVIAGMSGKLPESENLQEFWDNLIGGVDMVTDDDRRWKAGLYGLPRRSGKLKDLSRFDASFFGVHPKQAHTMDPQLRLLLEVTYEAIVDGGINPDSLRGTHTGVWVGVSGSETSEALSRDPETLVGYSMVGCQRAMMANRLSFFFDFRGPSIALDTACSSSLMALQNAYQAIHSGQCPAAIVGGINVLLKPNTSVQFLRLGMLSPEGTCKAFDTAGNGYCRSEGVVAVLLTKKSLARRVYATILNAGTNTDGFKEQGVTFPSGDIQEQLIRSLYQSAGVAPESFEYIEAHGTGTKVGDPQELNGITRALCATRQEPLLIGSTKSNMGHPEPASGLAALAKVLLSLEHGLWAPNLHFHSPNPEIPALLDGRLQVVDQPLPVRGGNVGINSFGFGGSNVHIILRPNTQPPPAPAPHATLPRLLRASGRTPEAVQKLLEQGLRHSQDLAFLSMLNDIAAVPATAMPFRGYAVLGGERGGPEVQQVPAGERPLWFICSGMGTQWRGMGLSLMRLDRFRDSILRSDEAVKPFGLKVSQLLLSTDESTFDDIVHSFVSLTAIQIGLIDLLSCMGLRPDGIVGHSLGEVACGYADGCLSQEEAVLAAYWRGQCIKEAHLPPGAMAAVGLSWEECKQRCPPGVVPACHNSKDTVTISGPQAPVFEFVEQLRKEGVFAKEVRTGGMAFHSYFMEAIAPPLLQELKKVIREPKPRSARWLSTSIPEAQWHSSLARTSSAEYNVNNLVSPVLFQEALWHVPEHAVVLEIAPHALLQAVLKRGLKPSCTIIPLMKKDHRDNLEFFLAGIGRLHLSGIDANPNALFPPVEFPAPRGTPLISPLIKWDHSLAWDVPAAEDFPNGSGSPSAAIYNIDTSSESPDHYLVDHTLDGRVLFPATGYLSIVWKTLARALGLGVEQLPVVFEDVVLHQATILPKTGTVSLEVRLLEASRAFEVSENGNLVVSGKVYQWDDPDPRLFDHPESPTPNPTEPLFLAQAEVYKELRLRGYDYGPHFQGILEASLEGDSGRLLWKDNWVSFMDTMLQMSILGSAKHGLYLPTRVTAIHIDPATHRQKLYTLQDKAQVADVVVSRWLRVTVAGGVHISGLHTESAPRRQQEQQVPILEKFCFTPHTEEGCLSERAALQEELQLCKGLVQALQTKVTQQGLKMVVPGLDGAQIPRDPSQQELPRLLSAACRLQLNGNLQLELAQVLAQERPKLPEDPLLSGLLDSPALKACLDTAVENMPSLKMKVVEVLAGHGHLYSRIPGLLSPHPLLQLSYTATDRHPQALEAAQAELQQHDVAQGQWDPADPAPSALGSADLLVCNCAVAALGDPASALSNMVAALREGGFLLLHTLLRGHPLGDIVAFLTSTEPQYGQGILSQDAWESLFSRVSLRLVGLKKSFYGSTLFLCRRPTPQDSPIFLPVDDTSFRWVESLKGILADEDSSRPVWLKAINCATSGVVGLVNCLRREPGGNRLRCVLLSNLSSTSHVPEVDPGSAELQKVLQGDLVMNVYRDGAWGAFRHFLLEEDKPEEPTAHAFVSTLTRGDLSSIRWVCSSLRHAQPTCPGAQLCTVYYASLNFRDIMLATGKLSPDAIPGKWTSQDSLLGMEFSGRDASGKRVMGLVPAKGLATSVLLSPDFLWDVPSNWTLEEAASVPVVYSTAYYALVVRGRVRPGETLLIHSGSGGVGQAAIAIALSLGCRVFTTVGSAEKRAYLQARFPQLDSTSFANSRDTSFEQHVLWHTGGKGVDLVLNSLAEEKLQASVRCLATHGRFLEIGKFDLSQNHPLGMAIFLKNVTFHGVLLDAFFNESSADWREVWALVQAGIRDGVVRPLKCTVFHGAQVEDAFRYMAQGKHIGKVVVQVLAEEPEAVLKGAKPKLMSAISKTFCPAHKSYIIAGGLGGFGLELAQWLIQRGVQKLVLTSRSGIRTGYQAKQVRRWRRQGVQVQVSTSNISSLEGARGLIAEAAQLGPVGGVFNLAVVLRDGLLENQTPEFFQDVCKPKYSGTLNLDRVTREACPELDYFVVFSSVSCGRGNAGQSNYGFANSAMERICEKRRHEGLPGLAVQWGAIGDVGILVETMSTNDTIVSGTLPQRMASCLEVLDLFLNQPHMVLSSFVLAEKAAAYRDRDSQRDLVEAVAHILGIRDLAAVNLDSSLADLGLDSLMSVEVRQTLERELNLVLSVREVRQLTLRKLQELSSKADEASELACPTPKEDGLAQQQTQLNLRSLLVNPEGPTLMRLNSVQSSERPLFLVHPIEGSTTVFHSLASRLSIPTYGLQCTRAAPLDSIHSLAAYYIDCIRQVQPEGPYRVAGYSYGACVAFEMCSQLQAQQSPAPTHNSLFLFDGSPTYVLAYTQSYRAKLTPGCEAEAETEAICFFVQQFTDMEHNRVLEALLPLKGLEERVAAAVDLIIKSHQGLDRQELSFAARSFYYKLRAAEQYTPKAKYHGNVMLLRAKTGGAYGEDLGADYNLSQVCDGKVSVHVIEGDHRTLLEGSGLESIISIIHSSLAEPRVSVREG

With `N#Cc1ccc(-c2ccc(-n3c(C[C@@H]4CCN(C(=O)C5CC5)C4)n[nH]c3=O)cc2)cc1` [Example 4, 4′-(3-{[(3S)-1-(cyclopropylcarbonyl)-3-pyrrolidinyl]methyl}-5-oxo-1,5-dihydro-4H-1,2,4-triazol-4-yl)-4-biphenylcarbonitrile] the IC50 was 126 nM.

molecular target: T1, FAS; assay: not given; conditions: inhibition of FAS; tested by one of the two FAS assays; value from at least one experiment or the average of multiple experiments

First: O=C(C1CC1)N1CC[C@@H](Cc2n[nH]c(=O)n2-c2ccc(-c3ccc4c(c3)OCO4)cc2)C1 [Example 38, 4-[4-(1,3-benzodioxol-5-yl)phenyl]-5-{[(3S)-1-(cyclopropylcarbonyl)-3-pyrrolidinyl]methyl}-2,4-dihydro-3H-1,2,4-triazol-3-one]
Second: O=C(C1CC1)N1CC[C@@H](Cc2n[nH]c(=O)n2-c2ccc(-c3ccc4ccoc4c3)cc2)C1 [Example 14, 4-[4-(1-benzofuran-6-yl)phenyl]-5-{[(3S)-1-(cyclopropylcarbonyl)-3-pyrrolidinyl]methyl}-2,4-dihydro-3H-1,2,4-triazol-3-one]
The IC50 of the first is 26-fold higher: 158 nM for the first, 6 nM for the second.

Going from `CC(=O)Nc1ccc(-c2ccc(-n3c(C[C@@H]4CCN(C(=O)C5CC5)C4)n[nH]c3=O)c(F)c2)cc1` [Example 158, N-[4′-(3-{[(3S)-1-(cyclopropylcarbonyl)-3-pyrrolidinyl]methyl}-5-oxo-1,5-dihydro-4H-1,2,4-triazol-4-yl)-3′-fluoro-4-biphenylyl]acetamide] to `COc1ccc(-c2ccc(-n3c(C[C@@H]4CCN(C(=O)C5CC5)C4)n[nH]c3=O)c(F)c2)cc1` [Example 116, 5-{[(3S)-1-(cyclopropylcarbonyl)-3-pyrrolidinyl]methyl}-4-[3-fluoro-4′-(methyloxy)-4-biphenylyl]-2,4-dihydro-3H-1,2,4-triazol-3-one], the IC50 falls from 398 nM to 40 nM (9.9-fold).

First: Cn1cnc2cc(-c3ccc(-n4c(C[C@@H]5CCN(C(=O)C6CC6)C5)n[nH]c4=O)cc3)ccc21 [Example 23, 5-{[(3S)-1-(cyclopropylcarbonyl)-3-pyrrolidinyl]methyl}-4-[4-(1-methyl-1H-benzimidazol-5-yl)phenyl]-2,4-dihydro-3H-1,2,4-triazol-3-one]
Second: CN(C)Cc1ccc(-c2ccc(-n3c(C[C@@H]4CCN(C(=O)C5CC5)C4)n[nH]c3=O)cc2)cc1 [Example 95, 5-{[(3S)-1-(cyclopropylcarbonyl)-3-pyrrolidinyl]methyl}-4-{4′-[(dimethylamino)methyl]-4-biphenylyl}-2,4-dihydro-3H-1,2,4-triazol-3-one]
The IC50 of the first is 15-fold lower: 13 nM for the first, 200 nM for the second. The first is the more potent here.

Going from `O=C(C1CC1)N1CC[C@@H](Cc2n[nH]c(=O)n2-c2ccc(-c3ccc4cnccc4c3)cc2F)C1` [Example 132, 5-{[(3S)-1-(cyclopropylcarbonyl)-3-pyrrolidinyl]methyl}-4-[2-fluoro-4-(6-isoquinolinyl)phenyl]-2,4-dihydro-3H-1,2,4-triazol-3-one] to `Cc1cc(-c2ccc3cc[nH]c3c2)ccc1-n1c(C[C@@H]2CCN(C(=O)C3CC3)C2)n[nH]c1=O` [Example 42, 5-{[(3S)-1-(cyclopropylcarbonyl)-3-pyrrolidinyl]methyl}-4-[4-(1H-indol-6-yl)-2-methylphenyl]-2,4-dihydro-3H-1,2,4-triazol-3-one], the IC50 rises from 3 nM to 5 nM (1.7-fold).

`O=C(C1CC1)N1CC(Cc2n[nH]c(=O)n2-c2ccc(-c3ccc4cc[nH]c4c3)cc2)C1` [Example 67, 5-{[1-(cyclopropylcarbonyl)-3-azetidinyl]methyl}-4-[4-(1H-indol-6-yl)phenyl]-2,4-dihydro-3H-1,2,4-triazol-3-one] and `Cn1nc(C[C@@H]2CCN(C(=O)C3CC3)C2)n(-c2ccc(-c3ccc4occc4c3)cc2)c1=O` [Example 7, 4-[4-(1-benzofuran-5-yl)phenyl]-5-{[(3S)-1-(cyclopropylcarbonyl)-3-pyrrolidinyl]methyl}-2-methyl-2,4-dihydro-3H-1,2,4-triazol-3-one] are within 1.5-fold of each other in IC50: 16 nM for the first, 20 nM for the second.

Reference: patent US8802864B2, “Triazolones as fatty acid synthase inhibitors” (GlaxoSmithKline LLC, priority 2010, dated 2014)
